Test results: patent publication US8354415B2, “Thienopyrimidine compounds and compositions” (Vernalis (R&D) Ltd., priority 2007, dated 2013)

Molecular target: T1, human adenosine A2B receptors (Homo sapiens, UniProt P29275)
T1 construct: expressed in transfected cells
T1 sequence (P29275 1-332): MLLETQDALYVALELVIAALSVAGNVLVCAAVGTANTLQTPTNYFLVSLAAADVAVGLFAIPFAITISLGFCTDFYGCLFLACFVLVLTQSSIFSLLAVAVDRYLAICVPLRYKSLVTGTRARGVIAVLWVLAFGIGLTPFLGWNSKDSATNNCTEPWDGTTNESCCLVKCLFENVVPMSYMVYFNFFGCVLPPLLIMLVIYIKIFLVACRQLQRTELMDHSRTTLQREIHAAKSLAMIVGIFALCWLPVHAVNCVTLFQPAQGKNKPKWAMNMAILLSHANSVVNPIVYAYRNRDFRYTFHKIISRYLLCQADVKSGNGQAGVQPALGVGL
Test: FLIPR calcium flux assay, adenosine A2B receptor expressing cells
Assay type: cell-based
Conditions: expressed human adenosine A2B receptors in mammalian cell lines, activity range
Procedure: The use of a Fluorometric Imaging Plate Reader (FLIPR) to measure calcium flux in Adenosine-receptor expressing cells is a well-established technique. In this assay calcium flux is triggered by receptor activation and measured through the fluorescence of an incorporated calcium-sensitive dye. The potencies shown were determined using expressed human adenosine A2B receptors in mammalian cell lines. Selectivity values were obtained by using mammalian cell lines expressing the human adenosine A1, A2A, and A3 receptors. Compound potency was determined from dose response curves and are reported as IC50 values.

SMILES	IC50 [nM]
CCNC(=O)c1nc(NCc2cccnc2)nc2ccsc12 [Example 8, 2-[(Pyridin-3-ylmethyl)-amino]-thieno[3,2-d]pyrimidine-4-carboxylic acid ethylamide]	> 500
O=C(NCCc1ccccc1)c1nc(NCc2cccnc2)nc2ccsc12 [Example 14, 2-[(Pyridin-3-ylmethyl)-amino]-thieno[3,2-d]pyrimidine-4-carboxylic acid phenethyl-amide]	< 500
O=C(NCc1ccccc1)c1nc(NCc2cccnc2)nc2ccsc12 [Example 16, 2-[(Pyridin-3-ylmethyl)-amino]-thieno[3,2-d]pyrimidine-4-carboxylic acid benzylamide]	< 500
COCCNC(=O)c1nc(NCc2cccnc2)nc2ccsc12 [Example 17, 2-[(Pyridin-3-ylmethyl)-amino]-thieno[3,2-d]pyrimidine-4-carboxylic acid (2-methoxy-ethyl)-amide]	> 500
O=C(NCc1cccnc1)c1nc(NCc2cccnc2)nc2ccsc12 [Example 18, 2-[(Pyridin-3-ylmethyl)-amino]-thieno[3,2-d]pyrimidine-4-carboxylic acid (pyridin-3-ylmethyl)-amide]	> 500
CC(Nc1nc(C(=O)NC2CC2)c2sccc2n1)c1cccnc1 (centres unmarked) [Example 20, 2-(1-Pyridin-3-yl-ethylamino)-thieno[3,2-d]pyrimidine-4-carboxylic acid cyclopropylamide]	< 500
Nc1nc(C(=O)NC2CC2)c2sccc2n1 [Example 21, 2-Amino-thieno[3,2-d]pyrimidine-4-carboxylic acid cyclopropylamide]	> 500

Next, values leading:

IC50 [nM]	SMILES
> 500	CC(Nc1nc(C(=O)N2CCCC2)c2sccc2n1)c1cccnc1 (racemic) [Example 7, [2-(1-Pyridin-3-yl-ethylamino)-thieno[3,2-d]pyrimidin-4-yl]-pyrrolidin-1-yl-methanone]
< 500	O=C(c1nc(NCc2cccnc2)nc2ccsc12)N1CCCC1 [Example 9, {2-[(Pyridin-3-ylmethyl)-amino]-thieno[3,2-d]pyrimidin-4-yl}-pyrrolidin-1-yl-methanone]
> 500	O=C(NC1CC1)c1nc(NCc2cccnc2)nc2ccsc12 [Example 10, 2-[(Pyridin-3-ylmethyl)-amino]-thieno[3,2-d]pyrimidine-4-carboxylic acid cyclopropylamide]
< 500	CC(C)NC(=O)c1nc(NCc2cccnc2)nc2ccsc12 [Example 11, 2-[(Pyridin-3-ylmethyl)-amino]-thieno[3,2-d]pyrimidine-4-carboxylic acid isopropylamide]
> 500	O=C(NC1CCCC1)c1nc(NCc2cccnc2)nc2ccsc12 [Example 12, 2-[(Pyridin-3-ylmethyl)-amino]thieno[3,2-d]pyrimidine-4-carboxylic acid cyclopentylamide]
> 500	CNC(=O)c1nc(NCc2cccnc2)nc2ccsc12 [Example 13, 2-[(Pyridin-3-ylmethyl)-amino]-thieno[3,2-d]pyrimidine-4-carboxylic acid methylamide]
< 500	O=C(NC1CCCCC1)c1nc(NCc2cccnc2)nc2ccsc12 [Example 15, 2-[(Pyridin-3-ylmethyl)-amino]-thieno[3,2-d]pyrimidine-4-carboxylic acid cyclohexylamide]
> 500	O=C(c1nc(NCc2cccnc2)nc2ccsc12)N1CCCCC1 [Example 19, Piperidin-1-yl-{2-[(pyridin-3-ylmethyl)-amino]-thieno[3,2-d]pyrimidin-4-yl}-methanone]
> 500	C[C@@H](Nc1nc(C(=O)N2CCCC2)c2sccc2n1)c1cccnc1 [Example 22]
< 500	C[C@H](Nc1nc(C(=O)N2CCCC2)c2sccc2n1)c1cccnc1 [Example 23, (S)-[2-(1-Pyridin-3-yl-ethylamino)-thieno[3,2-d]pyrimidin-4-yl]-pyrrolidin-1-yl-methanone]
